What was measured:
ERK1 = molecular target: T1, ERK1 (Homo sapiens, UniProt P27361); test: CEREP protein kinase assay; assay type: biochemical
T1 construct: purchased CEREP Panlabs (Eurofins)

FGFR4 = molecular target: T2, FGFR4 (Homo sapiens, UniProt P22455); test: CEREP protein kinase assay; assay type: biochemical
T2 construct: purchased CEREP Panlabs (Eurofins)

NCI-H460 xenograft = test: Antitumor efficacy and tumor metabolites, mouse xenograft, normal folate diet; assay type: in vivo; conditions: NCI-H460 tumors; after 13 days of treatment; normal chow
SGK1 = molecular target: T3, SGK1 (Homo sapiens, UniProt O00141); test: CEREP protein kinase assay; assay type: biochemical
T3 construct: purchased CEREP Panlabs (Eurofins)
T3 sequence (O00141 1-431): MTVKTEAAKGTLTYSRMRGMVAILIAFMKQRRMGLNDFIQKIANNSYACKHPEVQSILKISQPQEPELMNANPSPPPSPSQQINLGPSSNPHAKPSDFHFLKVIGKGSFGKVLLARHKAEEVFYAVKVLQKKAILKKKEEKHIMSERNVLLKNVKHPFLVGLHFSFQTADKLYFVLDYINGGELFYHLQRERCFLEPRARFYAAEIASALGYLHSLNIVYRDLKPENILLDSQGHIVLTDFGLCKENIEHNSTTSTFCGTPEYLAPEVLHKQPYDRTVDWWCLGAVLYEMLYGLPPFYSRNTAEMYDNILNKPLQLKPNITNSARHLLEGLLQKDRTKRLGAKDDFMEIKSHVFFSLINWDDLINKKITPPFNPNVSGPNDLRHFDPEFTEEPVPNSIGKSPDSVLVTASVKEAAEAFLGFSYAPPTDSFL

PKAa = molecular target: T4, PKAa (Homo sapiens, UniProt P17612); test: CEREP protein kinase assay; assay type: biochemical
T4 construct: purchased CEREP Panlabs (Eurofins)

cell lines of Table 1 = test: MS detection of ZMP in cultured cells, average over cell lines; assay type: cell-based; conditions: Homo sapiens
Description: Cells lines were acquired from cell banks, see supplemental material, grown using the cell banks recommended culture conditions (Supplemental Table 3). In some experiments noted “low folate” the cells were washed and grown in folate free RPMI-1640 media (Gibco #27016-021) supplemented with 5 ml 1 M Hepes, 5 ml 100 mM Na pyruvate, 2.5 mg/ml glucose and 10% defined FBS (Hyclone #SH30070) per 500 mL media for 5–7 days to deplete intracellular folate levels prior to the start of the experiment. Where noted, cells were maintained in complete “high folate” RPMI-1640 media (ATCC #30-2001) with 10% defined FBS to contrast with the low folate conditions.
ZMP was detected in cultured cells via mass spec analysis. Cells were plated in 96-well plates at 25,000 cells per well in 100 µL with either high or low folate RPMI media and incubated overnight at 37 °C with 5% CO2. Cells were treated with inhibitor compounds for 16 hours, 0.5% DMSO final concentration. […]
ZMP, AICAr and dUMP were detected using positive ion TurboIonSpray® multiple reaction monitoring mode and the data were processed with AB Sciex MultiQuant™. Back-calculated ZMP concentrations were fit to a four-parameter logistic equation using ACTIVITYBASE 4.0 to determine EC50 values relative to the maximum observed metabolite levels.

Pharmacokinetic studies = assay type: in vivo; conditions: mouse
Description: Blood samples were obtained through tail clip at 0, 0.08 (IV only), 0.25, 0.75, 2, 4, 8, and 24 hours where approximately 20 µL of blood was filled to capacity into EDTA-coated capillary tubes (Fisher Scientific,) and spotted on to Whatman® DMPK-C DBS collection (GE Healthcare Bio-Sciences). Once spotted, the cards were allowed to dry for 2 hours, placed in Ziploc® bags (S.C. Johnson & Son, Inc.) and shipped to the bioanalytical facility at ambient temperature. Punches (3 mm) from DBS cards were extracted with 180 µL of a 20 ng/mL analog IS (proprietary Lilly compound) in methanol/acetonitrile (1:1, v/v) solution in 96-well plates. Samples were quantitated using LC-MS analysis (AB Sciex® API 4000 triple-quadrupole mass spectrometer (Life Technologies Corporation). PK parameters were calculated for concentration time profiles using Watson LIMS version 7.4 (Thermo Scientific).

FLT4 = molecular target: T5, FLT4 (Homo sapiens, UniProt P35916); test: CEREP protein kinase assay; assay type: biochemical
T5 construct: purchased CEREP Panlabs (Eurofins)
T5 sequence (P35916 25-1363): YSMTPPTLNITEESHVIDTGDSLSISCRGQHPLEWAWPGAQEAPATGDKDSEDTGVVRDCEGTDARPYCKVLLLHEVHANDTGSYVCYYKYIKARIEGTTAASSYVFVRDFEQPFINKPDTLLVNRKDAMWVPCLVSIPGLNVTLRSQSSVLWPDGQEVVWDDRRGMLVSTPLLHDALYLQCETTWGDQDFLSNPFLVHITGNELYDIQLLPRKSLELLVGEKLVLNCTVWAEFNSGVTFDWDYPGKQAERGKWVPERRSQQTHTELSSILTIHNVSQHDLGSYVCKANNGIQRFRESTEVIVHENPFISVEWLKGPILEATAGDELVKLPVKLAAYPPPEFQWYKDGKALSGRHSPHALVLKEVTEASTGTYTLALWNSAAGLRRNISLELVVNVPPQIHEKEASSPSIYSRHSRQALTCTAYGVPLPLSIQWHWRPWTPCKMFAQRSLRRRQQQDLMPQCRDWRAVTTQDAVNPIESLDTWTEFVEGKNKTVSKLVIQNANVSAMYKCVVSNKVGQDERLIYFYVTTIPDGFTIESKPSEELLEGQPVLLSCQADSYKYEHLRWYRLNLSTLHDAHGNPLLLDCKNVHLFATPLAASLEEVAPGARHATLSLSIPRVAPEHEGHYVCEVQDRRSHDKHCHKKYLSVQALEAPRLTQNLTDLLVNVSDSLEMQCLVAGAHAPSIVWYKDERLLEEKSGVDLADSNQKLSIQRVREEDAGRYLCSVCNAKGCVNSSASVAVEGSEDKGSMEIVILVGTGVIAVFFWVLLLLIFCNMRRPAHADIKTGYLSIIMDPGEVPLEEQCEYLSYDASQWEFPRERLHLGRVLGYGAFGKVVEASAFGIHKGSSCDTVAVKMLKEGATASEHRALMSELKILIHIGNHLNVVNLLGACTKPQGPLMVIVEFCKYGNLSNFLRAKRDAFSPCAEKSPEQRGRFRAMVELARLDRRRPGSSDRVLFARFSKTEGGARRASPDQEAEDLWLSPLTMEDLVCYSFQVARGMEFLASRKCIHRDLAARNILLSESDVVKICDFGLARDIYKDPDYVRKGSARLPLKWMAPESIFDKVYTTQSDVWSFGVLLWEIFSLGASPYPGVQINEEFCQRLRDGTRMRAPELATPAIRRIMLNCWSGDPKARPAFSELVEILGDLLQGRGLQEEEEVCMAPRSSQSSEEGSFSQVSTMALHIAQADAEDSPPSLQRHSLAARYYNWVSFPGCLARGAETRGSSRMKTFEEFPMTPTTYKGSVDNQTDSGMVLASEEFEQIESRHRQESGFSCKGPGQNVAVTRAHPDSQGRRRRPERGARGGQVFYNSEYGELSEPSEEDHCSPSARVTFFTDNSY

[1] = male, CD-1, whole blood (dried blood spots), oral 10 mg/kg

T1 sequence (P27361 whole entry): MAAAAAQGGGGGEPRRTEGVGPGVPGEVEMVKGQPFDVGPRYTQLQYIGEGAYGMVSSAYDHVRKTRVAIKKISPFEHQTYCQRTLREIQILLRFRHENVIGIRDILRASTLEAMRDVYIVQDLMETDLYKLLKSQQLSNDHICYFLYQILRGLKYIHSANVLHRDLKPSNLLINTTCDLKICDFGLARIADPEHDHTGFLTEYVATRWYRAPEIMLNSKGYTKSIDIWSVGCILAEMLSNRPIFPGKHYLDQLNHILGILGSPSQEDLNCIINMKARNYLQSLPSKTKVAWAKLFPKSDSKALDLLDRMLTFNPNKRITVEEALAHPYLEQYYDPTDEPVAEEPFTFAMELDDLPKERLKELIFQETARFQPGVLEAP
T2 sequence (P22455 22-802): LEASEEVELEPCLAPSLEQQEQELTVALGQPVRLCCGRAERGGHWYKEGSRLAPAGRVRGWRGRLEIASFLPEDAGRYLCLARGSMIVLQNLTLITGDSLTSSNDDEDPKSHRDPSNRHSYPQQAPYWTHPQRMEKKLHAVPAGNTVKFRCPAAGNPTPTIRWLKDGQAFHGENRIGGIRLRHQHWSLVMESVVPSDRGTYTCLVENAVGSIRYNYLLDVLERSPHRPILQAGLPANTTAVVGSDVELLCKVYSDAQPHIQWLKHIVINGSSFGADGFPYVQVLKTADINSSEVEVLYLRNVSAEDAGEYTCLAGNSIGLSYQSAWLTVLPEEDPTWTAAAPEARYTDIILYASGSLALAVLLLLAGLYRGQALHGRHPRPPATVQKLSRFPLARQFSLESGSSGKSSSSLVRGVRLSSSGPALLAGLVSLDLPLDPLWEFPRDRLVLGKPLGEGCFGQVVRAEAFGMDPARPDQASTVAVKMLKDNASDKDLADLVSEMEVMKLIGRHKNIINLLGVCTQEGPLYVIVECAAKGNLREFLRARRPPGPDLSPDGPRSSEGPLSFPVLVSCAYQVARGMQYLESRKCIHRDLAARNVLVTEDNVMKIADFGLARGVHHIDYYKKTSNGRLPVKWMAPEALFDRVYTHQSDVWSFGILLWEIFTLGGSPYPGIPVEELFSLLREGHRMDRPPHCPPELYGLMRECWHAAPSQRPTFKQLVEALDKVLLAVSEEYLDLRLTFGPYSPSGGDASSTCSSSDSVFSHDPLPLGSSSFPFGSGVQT

For `O=c1[nH]ccc2cc(F)c(NS(=O)(=O)c3ccc(N4CC[C@@H](O)C4)s3)cc12` [LSN3213128, N-(6-Fluoro-1-oxo-1,2-dihydroisoquinolin-7-yl)-5-[(3R)-3-hydroxypyrrolidin-1-yl]thiophene-2-sulfonamide], which inhibition at 0.2 µM (ERK1; @ 0.2 uM) is on record?
The inhibition at 0.2 µM was -2.6%.

What about the inhibition at 2 µM (ERK1; @ 2 uM) of the same molecule?
The inhibition at 2 µM was 9.15%.

And the inhibition at 20 µM (ERK1; @ 20 uM)?
The inhibition at 20 µM was 53.7%.

And the inhibition at 0.2 µM (FGFR4; @ 0.2 uM)?
Its inhibition at 0.2 µM is 0.737%.

And the inhibition at 2 µM (FGFR4; @ 2 uM)?
The inhibition at 2 µM was 13.2%.

What about the inhibition at 20 µM (FGFR4; @ 20 uM) of the same molecule?
Its inhibition at 20 µM is 8.82%.

And the “tumor ZMP levels” value (NCI-H460 xenograft)?
The value was “dramatically elevated”.

What about the “tumor dUMP levels” value (NCI-H460 xenograft) of the same molecule?
The value was “remained constant”.

What about the inhibition at 0.2 µM (SGK1; @ 0.2 uM) of the same molecule?
Its inhibition at 0.2 µM is -4.06%.

What about the inhibition at 2 µM (SGK1; @ 2 uM) of the same molecule?
Its inhibition at 2 µM is 7.54%.

And the inhibition at 20 µM (SGK1; @ 20 uM)?
The inhibition at 20 µM was 17.3%.

And the inhibition at 0.2 µM (PKAa; @ 0.2 uM)?
Its inhibition at 0.2 µM is -7.44%.

What about the inhibition at 2 µM (PKAa; @ 2 uM) of the same molecule?
Its inhibition at 2 µM is -0.808%.

What about the inhibition at 20 µM (PKAa; @ 20 uM) of the same molecule?
The inhibition at 20 µM was 3.8%.

And the EC50 (cell lines of Table 1; low folate media, 12 cell lines)?
The EC50 was 0.0049 ± 0.0026 µM.

And the EC50 (cell lines of Table 1; normal RPMI, 8 cell lines)?
Its EC50 is 1.21 µM.

What about the Vd (Pharmacokinetic studies; male, CD-1, whole blood (dried blood spots), intravenous 1 mg/kg, read-out: volume of distribution) of the same molecule?
The Vd was 0.779 ± 0.17 L/kg.

And the AUC (Pharmacokinetic studies; [1])?
Its AUC is 20.2 ± 4.52 µM·h.

And the Cmax (Pharmacokinetic studies; [1])?
The Cmax was 4.57 ± 0.559 µM.

What about the bioavailability (Pharmacokinetic studies; male, CD-1, whole blood (dried blood spots), oral 10 mg/kg vs intravenous 1 mg/kg) of the same molecule?
The bioavailability was 24.6 ± 4.6%.

What about the half-life (Pharmacokinetic studies; oral 10 mg/kg) of the same molecule?
Its half-life is 2.4 ± 0.3 h.

What about the “unbound Cmax” value (Pharmacokinetic studies; oral 10 mg/kg) of the same molecule?
Its value is 0.251 ± 0.031 µM.

What about the inhibition at 0.2 µM (FLT4; @ 0.2 uM) of the same molecule?
The inhibition at 0.2 µM was -9.28%.

What about the inhibition at 2 µM (FLT4; @ 2 uM) of the same molecule?
The inhibition at 2 µM was 6.53%.

What about the inhibition at 20 µM (FLT4; @ 20 uM) of the same molecule?
Its inhibition at 20 µM is 70.5%.

— article PMC6193938, “Characterization of a novel AICARFT inhibitor which potently elevates ZMP and has anti-tumor activity in murine models” (Scientific Reports, 2018)
